Usually IC50 stands for the concentration that gives 50% inhibition. For orientation: Ki means the dissociation constant of the complex between target and ligand, obtained from inhibition or displacement. Low values mean tighter binding, high ones weaker binding.

The target in experiment [1] is maltase (Rattus norvegicus, UniProt D3ZTX4). Put plainly: Enzyme-kinetic analysis on maltase (Lineweaver–Burk plots). The format is biochemical, Wistar rats. Conditions: maltose substrate. The method, then:
(§1) Sucrase and maltase were obtained from the intestinal brush border of Wistar rats. […] Each stock solution was prepared with distilled water. All other solvents and chemicals were of analytical purity.
(§2) Lineweaver–Burk double reciprocal plots (LB plots) were then obtained to calculate the kinetic constants and evaluate inhibitory type, the equation is as follows: 1/V = (Km + [S])/(Vmax[S]) = (Km/Vmax) * (1/[S]) + (1/Vmax),
(§3) In this equation, [S] denotes the concentration of substrate, V represents the enzyme reaction velocity and Km is the Michaelis–Menten constant.

Experiment [2] concerns the target α-amylase. Briefly: α-amylase inhibition assay (starch-iodine). The settings on record: for α-Amylase Inhibition, Inhibition Ratio (%): at 1 × 10^−5 M. The format is biochemical. The method, then:
as §1
α-amylase was pre-incubated with different compound concentrations (0.016–100 μmol/L) at 37 °C for 15 min, and the reaction was initiated with the addition of 100 µL of 0.04% starch solution. After incubation at 37 °C for 10 min, 0.1 M iodine reagent was added. Absorption at 660 nm was measured to determine the remaining amount of starch in the reaction and thus calculate the inhibitory effect in the different samples.

The target in experiment [3] is T1, sucrase (Rattus norvegicus, UniProt P23739).
T1 construct: Sucrase and maltase were obtained from the intestinal brush border of Wistar rats; from tissue; host or cells: intestinal brush border of Wistar rats
Briefly: Enzyme-kinetic analysis on sucrase (Lineweaver–Burk plots). The format is biochemical, Wistar rats. The settings on record: for Ki: from LB plots; for Inhibition Type: sucrose substrate. The method, then: as §1, §2, §3

In experiment [4] the target is T1, sucrase. Put plainly: α-glucosidase inhibition assay, sucrase (sucrose substrate, glucose oxidase readout). Conditions: for Sucrase Inhibition, Inhibition Ratio (%): at 4 × 10^−5 M. It counts as biochemical, Wistar rats. How it is done: as §1
The modified inhibitory screening system was used to determine inhibitory activity on α-glucosidase. Selected starch, sucrose, and maltose were used as α-glucosidase substrates instead of p-nitrophenyl glucopyranoside. Maltase and sucrase were pre-incubated with different concentrations of compound (0.004–400 μmol/L) at 37 °C for 8 min, and the substrate was then added into initiate the reaction. After incubation at 37 °C for 40 min, 150 μL of glucose oxidase solution was added to each mixture and incubated at 37 °C for 40 min. […] Inhibitory percentage values were calculated using the formula: %Inhibition = (B − C)/B × 100, where B is the formation of glucose under the enzyme without compound and C is the formation of glucose with compound.

Where [5] appears, read: read-out: Sucrase Inhibition IC50.

SMILES strings stand for the structures. Read-outs that look alike come from different tables or passages of the source.

Chain of maltase (D3ZTX4 1-4511): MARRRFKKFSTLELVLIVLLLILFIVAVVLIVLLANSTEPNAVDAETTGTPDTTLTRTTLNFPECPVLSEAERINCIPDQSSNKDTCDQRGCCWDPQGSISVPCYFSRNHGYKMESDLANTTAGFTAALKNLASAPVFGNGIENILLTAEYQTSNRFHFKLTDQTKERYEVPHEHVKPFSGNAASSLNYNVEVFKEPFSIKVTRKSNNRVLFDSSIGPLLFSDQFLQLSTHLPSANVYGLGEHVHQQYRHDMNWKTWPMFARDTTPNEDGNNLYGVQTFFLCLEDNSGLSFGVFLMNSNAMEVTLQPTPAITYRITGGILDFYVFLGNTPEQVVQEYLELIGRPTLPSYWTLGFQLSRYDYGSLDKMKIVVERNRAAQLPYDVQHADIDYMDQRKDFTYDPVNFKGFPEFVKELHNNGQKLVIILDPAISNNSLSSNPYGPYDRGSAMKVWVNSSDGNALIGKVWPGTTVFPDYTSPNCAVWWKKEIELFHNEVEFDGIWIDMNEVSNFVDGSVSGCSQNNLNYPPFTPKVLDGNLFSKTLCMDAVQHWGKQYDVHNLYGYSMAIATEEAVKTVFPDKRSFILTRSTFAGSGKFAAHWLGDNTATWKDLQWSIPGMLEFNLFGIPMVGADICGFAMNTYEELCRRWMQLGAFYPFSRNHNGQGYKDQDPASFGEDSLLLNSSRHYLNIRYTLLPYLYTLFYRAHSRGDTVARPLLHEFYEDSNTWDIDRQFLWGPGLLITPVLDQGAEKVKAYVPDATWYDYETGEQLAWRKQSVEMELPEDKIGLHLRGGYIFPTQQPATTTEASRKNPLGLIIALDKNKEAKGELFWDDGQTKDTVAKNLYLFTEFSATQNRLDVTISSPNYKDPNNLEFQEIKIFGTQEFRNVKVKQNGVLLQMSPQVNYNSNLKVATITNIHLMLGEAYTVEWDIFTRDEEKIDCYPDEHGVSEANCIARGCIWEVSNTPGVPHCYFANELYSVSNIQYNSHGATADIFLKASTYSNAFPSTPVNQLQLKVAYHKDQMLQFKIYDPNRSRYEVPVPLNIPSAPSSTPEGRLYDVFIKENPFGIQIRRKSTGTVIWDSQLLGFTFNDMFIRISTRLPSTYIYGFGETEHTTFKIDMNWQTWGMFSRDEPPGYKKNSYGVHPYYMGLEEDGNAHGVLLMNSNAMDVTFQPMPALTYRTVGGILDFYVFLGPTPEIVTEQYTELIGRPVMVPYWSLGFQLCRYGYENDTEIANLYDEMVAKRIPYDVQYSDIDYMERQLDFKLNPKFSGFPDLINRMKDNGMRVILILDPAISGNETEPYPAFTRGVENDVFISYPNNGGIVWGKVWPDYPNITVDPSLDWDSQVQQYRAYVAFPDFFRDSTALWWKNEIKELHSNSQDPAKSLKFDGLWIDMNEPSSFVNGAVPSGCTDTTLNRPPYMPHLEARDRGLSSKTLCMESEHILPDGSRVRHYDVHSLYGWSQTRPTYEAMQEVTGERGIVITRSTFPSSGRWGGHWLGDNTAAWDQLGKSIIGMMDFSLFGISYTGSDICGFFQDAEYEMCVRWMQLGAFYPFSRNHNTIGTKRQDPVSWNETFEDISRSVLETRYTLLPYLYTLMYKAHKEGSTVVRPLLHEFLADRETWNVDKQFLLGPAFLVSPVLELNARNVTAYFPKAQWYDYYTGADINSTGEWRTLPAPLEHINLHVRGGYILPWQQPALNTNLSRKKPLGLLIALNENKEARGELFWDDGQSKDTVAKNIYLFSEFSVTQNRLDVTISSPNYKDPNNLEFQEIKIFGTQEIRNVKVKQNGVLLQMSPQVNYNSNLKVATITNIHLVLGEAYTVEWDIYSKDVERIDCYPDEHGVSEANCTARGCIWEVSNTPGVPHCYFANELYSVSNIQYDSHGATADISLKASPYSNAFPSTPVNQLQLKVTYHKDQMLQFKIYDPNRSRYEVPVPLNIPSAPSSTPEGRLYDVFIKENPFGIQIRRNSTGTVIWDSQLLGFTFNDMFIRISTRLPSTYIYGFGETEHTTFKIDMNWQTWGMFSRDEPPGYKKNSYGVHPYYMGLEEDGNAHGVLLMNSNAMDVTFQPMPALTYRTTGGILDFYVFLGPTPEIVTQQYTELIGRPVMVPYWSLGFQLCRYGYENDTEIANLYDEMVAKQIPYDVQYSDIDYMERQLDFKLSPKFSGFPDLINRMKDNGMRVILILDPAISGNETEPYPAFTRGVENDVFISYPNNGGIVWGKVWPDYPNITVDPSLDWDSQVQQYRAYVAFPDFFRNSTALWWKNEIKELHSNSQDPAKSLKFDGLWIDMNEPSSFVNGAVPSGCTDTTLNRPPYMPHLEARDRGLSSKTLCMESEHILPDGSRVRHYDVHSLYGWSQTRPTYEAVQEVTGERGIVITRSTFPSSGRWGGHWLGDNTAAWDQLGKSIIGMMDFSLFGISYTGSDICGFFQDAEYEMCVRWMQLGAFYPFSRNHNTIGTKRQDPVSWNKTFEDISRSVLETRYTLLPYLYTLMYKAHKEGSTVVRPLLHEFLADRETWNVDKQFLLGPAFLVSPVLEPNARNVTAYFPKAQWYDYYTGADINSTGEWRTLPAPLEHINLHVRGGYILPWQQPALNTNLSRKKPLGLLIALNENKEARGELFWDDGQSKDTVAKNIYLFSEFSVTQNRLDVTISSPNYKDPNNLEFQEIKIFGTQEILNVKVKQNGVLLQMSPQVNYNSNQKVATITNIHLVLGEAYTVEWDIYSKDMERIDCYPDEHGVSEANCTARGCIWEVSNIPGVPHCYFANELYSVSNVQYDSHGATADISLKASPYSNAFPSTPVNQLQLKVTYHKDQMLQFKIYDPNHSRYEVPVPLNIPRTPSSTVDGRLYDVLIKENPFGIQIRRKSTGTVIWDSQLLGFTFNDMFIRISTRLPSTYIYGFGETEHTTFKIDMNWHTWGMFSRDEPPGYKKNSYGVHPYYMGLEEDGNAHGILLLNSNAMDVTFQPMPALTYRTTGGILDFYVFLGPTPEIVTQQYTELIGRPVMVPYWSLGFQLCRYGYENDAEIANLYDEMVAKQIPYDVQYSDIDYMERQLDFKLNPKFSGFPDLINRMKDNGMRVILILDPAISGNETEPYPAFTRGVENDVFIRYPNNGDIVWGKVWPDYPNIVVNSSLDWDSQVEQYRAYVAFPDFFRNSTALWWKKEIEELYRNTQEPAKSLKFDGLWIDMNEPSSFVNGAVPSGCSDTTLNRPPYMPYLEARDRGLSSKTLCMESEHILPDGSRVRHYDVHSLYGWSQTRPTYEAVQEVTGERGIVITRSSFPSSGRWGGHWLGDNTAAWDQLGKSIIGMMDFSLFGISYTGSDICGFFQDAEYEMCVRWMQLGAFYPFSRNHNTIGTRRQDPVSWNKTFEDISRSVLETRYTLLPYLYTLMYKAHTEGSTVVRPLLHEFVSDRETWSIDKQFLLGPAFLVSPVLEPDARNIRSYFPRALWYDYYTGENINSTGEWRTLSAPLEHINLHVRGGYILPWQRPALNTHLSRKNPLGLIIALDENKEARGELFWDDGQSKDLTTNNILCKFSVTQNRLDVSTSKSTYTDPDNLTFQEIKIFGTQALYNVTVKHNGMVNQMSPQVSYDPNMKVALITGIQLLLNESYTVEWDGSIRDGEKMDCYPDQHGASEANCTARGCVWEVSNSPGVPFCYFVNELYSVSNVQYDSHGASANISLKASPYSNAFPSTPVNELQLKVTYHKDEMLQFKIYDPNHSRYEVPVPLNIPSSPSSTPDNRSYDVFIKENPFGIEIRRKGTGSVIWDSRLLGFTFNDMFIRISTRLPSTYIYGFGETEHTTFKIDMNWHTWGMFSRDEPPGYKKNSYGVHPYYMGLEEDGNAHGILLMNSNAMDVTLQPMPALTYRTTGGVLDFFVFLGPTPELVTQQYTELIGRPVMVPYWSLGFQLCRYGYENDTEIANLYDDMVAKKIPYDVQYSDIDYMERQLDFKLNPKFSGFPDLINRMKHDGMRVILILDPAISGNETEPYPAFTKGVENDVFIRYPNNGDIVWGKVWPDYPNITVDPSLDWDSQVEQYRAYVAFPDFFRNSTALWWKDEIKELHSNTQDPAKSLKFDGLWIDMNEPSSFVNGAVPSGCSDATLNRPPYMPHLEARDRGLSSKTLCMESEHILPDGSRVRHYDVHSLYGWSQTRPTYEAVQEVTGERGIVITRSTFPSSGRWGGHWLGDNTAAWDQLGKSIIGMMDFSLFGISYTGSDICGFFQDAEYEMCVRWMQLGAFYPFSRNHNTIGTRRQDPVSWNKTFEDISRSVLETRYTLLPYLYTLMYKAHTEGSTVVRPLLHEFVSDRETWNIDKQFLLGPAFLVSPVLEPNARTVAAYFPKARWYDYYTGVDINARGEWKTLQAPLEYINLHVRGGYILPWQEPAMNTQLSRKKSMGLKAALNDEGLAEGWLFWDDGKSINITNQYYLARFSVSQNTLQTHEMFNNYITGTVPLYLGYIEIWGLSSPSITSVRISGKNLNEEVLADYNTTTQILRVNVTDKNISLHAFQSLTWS

In the case of `OC[C@H]1NC[C@H](O)[C@@H](O)[C@@H]1O` [1-DNJ, 1-deoxynojirimycin], the “Inhibition Type” value in experiment [1] and in experiment [3] was “Competitive inhibition” in each case. Besides, the half-inhibitory concentration (IC50) was greater than 100 µM in experiment [2]; 0.0613 µM in experiment [4] (converted from μmol/L by mol wt, read-out: Sucrase IC50 after conversion according to the molecular weight (converted)); 0.078 µM in experiment [4] (setting [5]). Also, the “Inhibitory activity on α-amylase (in words)” value (“Inhibitory activity” for short) in experiment [2] was “no obvious inhibitory activity”. For the same compound, the “α-Amylase Inhibition, Inhibition Ratio (%)” value in experiment [2] is reported as 0%. The same compound gave a Ki in experiment [3] of 0.0137 µM. Also, in experiment [4] (IC50 amylase / IC50 sucrase), the “Selectivity sucrase over amylase (IC50 amylase/IC50 disaccharidases)” value came out at 1282 times. For the same compound, the “Sucrase Inhibition, Inhibition Ratio (%)” value in experiment [4] is recorded as 100%.

In the case of `C[C@H]1O[C@H](O[C@H]2[C@H](O)[C@@H](O)[C@@H](O[C@H]3[C@H](O)[C@@H](O)C(O)O[C@@H]3CO)O[C@@H]2CO)[C@H](O)[C@@H](O)[C@@H]1N[C@H]1C=C(CO)[C@@H](O)[C@H](O)[C@H]1O` (stereo partly drawn) [Acarbose, acarbose, reference compound], the “Inhibition Type” value in experiment [1] and in experiment [3] was “Competitive inhibition” in each case. Further, in experiment [2], the “Inhibitory activity” value was “strongly inhibited”.

For `OC[C@H]1NC[C@@H](O)[C@@H]1O` [DAB, 1,4-dideoxy-1,4-imino-D-arabinitol], in experiment [1], the “Inhibition Type” value is listed as “Competitive inhibition”. Besides, in experiment [2], the IC50 was greater than 100 µM and the “Inhibitory activity” value is “no obvious inhibitory activity”.

As for `OC[C@H]1NCC[C@@H](O)[C@@H]1O` [FA, fagomine], in experiment [1], the “Inhibition Type” value is recorded as “Competitive inhibition”. Also, in experiment [2], the IC50 was greater than 100 µM; the “Inhibitory activity” value was “no obvious inhibitory activity”; the “α-Amylase Inhibition, Inhibition Ratio (%)” value amounted to 0%. Moreover, in experiment [3], the Ki worked out at 3.97 µM and the “Inhibition Type” value was “Competitive inhibition”. Moreover, the “Sucrase Inhibition, Inhibition Ratio (%)” value in experiment [4] was found to be 84.6%. The IC50 in experiment [4] (setting [5]) worked out at 13.5 µM.

These data come from publication PMC6539310, “Investigation on the Enzymatic Profile of Mulberry Alkaloids by Enzymatic Study and Molecular Docking” (Molecules, 2019).
